Measurements as given in patent US20160312261A1, “ENZYMATIC PRODUCTION OF CYTOSINIC NUCLEOSIDE ANALOGUES” (PLASMIA BIOTECH, S.L., priority 2015, published 2016).

Experiment: Thermal stability of Capecitabine on heating
Type: physicochemical
Conditions: heating at 90° C. during 10 hours at neutral pH
Experimental: The one step process for the preparation of Capecitabine disclosed in WO 2011/104540 suffers from important loses of the final product. Capecitabine suffers from thermal instability at high temperatures, and after heating the product at 90° C. during 10 hours at neutral pH, up to 40% of the product is lost. On the contrary, the enzymatic process of the invention runs at milder conditions, using water as solvent and furnishing yields higher than 70%.

- product lost after heating (thermal instability): up to 40%
SMILES: CCCCCOC(=O)Nc1nc(=O)n([C@@H]2O[C@H](C)[C@@H](O)[C@H]2O)cc1F [Capecitabine, N^4-pentyloxycarbonyl-5′-deoxy-5-fluorocytidine]
